In patent publication US4163051A, “Streptomycetal antibiotic” (Beecham Group Limited, priority 1975, dated 1979):
Structures can show the parent of a compound that is named as a salt.

Tests used:
Bacillus subtilis = test: antibacterial activity (MIC), microtitre method, heavy inoculum; type: cell-based; details: overnight inoculum at 0.2%
Method: (§1) The antibacterial activity of the material produced as above was determined by the microtitre method using the overnight inoculum of the test organism at 0.2% concentration. The synergistic activity of the di-sodium salt of MM 17880 in combination with ampicillin and with cephaloridine against Klebsiella aerogenes and Staphylococcus aureus Russell are shown in Table 3.
(§2) Microtitre - heavy inoculum

[1] = system: Citrobacter freundii Mantio; test: as above; type: cell-based; details: overnight inoculum at 0.2%
Method: as §1, §2

E. coli 10418 = test: as above; type: cell-based; details: overnight inoculum at 0.2%
Method: as §1, §2

E. coli JT4 = test: as above; type: cell-based; details: overnight inoculum at 0.2%
Method: as §1, §2

Klebsiella aerogenes A [2] = test: as above; type: cell-based; details: overnight inoculum at 0.2%
Method: as §1, §2

[3] = system: Klebsiella aerogenes Ba95; test: as above; type: cell-based; details: overnight inoculum at 0.2%
Method: as §1, §2

Proteus mirabilis 13 = test: as above; type: cell-based; details: overnight inoculum at 0.2%
Method: as §1, §2

Proteus morganii 1580 = test: as above; type: cell-based; details: overnight inoculum at 0.2%
Method: as §1, §2

Proteus retigeri VM16 = test: as above; type: cell-based; details: overnight inoculum at 0.2%
Method: as §1, §2

Proteus vulgaris W090 = test: as above; type: cell-based; details: overnight inoculum at 0.2%
Method: as §1, §2

Pseudomonas aeruginosa A = test: as above; type: cell-based; details: overnight inoculum at 0.2%
Method: as §1, §2

[4] = system: Salmonella typhimurium CT10; test: as above; type: cell-based; details: overnight inoculum at 0.2%
Method: as §1, §2

Serratia marcescens US1 = test: as above; type: cell-based; details: overnight inoculum at 0.2%
Method: as §1, §2

[5] = system: Staphylococcus aureus Oxford; test: as above; type: cell-based; details: overnight inoculum at 0.2%
Method: as §1, §2

[6] = system: Staphylococcus aureus Russell; test: as above; type: cell-based; details: overnight inoculum at 0.2%
Method: as §1, §2

Streptococcus faccalis I = test: as above; type: cell-based; details: overnight inoculum at 0.2%
Method: as §1, §2

[7] = system: Streptococcus pyrogenes CN10; test: as above; type: cell-based; details: overnight inoculum at 0.2%
Method: as §1, §2

Klebsiella aerogenes A [8] = test: activity in combination with ampicillin and cephaloridine (synergy, MIC); type: cell-based
Method: as §1

[9] = system: Staphylococcus aureus Russell; test: as above; type: cell-based
Method: as §1

[10] = stability of salts and unsalted acid; type: physicochemical; details: salts vs unsalted acid; in solution
Klebsiella aerogenes = test: hole in plate method on agar seeded with Klebsiella aerogenes (arbitrary units); type: cell-based; details: final solid of Example 1, sodium salt
Method: 300 ml. of 10% Pluronic L81 in soya-bean oil was added to prevent foaming. The fermentation was harvested after 48 hours and clarified by centrifugation. The clarified brew was arbitarily assigned an activity of 340 units/ml when assayed by the conventional hole in plate method on agar seeded with Klebsiella aerogenes.

[11] = target: T1, β-lactamase from E. coli JT4 (Escherichia coli, UniProt P62593); test: β-lactamase inhibition by the method of Belgian Pat. No. 827331; type: biochemical; details: read-out: I50 (converted)
T1 construct: β-lactamase from E. coli JT4; endogenous in cells; host or cells: E. coli JT4

[12] = system: certain gram-positive and gram-negative organisms; test: antibacterial activity, microtitre method (general statement); type: cell-based; details: substantially pure
Description: It is likely that MM 17880 has a molecular weight between 300 and 500. […] Thus MM 17880 has the molecular formula C11-14 […]-23 O8-11 N2 S2.

[13] = system: certain β-lactamase producing strains of Staphylococcus aureus and Klebsiella aerogenes; test: synergy with β-lactam antibiotics (general statement); type: cell-based; details: substantially pure; with ampicillin, amoxycillin and the like

T1 sequence (P62593 24-286 limits assumed): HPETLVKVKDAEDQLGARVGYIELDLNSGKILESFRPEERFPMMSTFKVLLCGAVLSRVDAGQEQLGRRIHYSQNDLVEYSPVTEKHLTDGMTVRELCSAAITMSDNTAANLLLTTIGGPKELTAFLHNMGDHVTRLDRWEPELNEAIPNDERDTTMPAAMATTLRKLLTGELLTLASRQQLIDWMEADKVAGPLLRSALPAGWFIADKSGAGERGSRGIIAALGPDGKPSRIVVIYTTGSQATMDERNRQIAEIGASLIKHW

With CC(=O)NCCSC1=C(C(=O)O)N2C(=O)C(C(C)OS(=O)(=O)O)C2C1 (stereo not shown) [MM 17880] the MIC (Bacillus subtilis) was 0.2 µg/mL, the MIC [1] was 3.1 µg/mL and the MIC (E. coli 10418) was 0.1 µg/mL. For the same compound, the MIC (E. coli JT4) was 3.1 µg/mL, the MIC (Klebsiella aerogenes A [2]) was 0.8 µg/mL and the MIC [3] was 12.5 µg/mL. It also gave an MIC (Proteus mirabilis 13) of 1.6 µg/mL, an MIC (Proteus morganii 1580) of 1.6 µg/mL and an MIC (Proteus retigeri VM16) of 0.2 µg/mL. For the same compound, the MIC (Proteus vulgaris W090) was 0.2 µg/mL, the MIC (Pseudomonas aeruginosa A) was > 50 µg/mL and the MIC [4] was 0.2 µg/mL. For the same compound, the MIC (Serratia marcescens US1) was 0.4 µg/mL, the MIC [5] was 0.4 µg/mL and the MIC [6] was 0.4 µg/mL. The MIC (Streptococcus faccalis I) was 6.2 µg/mL, the MIC [7] was < 0.01 µg/mL and the MIC (Klebsiella aerogenes A [8]) was 0.2 µg/mL. The MIC [9] was 3.1 µg/mL, the stability [10] was “tends to decompose in solution” and the “activity (assayed, arbitrary units)” value (Klebsiella aerogenes) was 16,000 units/mg.
With CC(=O)NCCSC1=C(C(=O)O)N2C(=O)C(C(C)OS(=O)(=O)O)C2C1 (stereo not shown) [di-sodium salt of MM 17880] the IC50 [11] was 634 pM, the “level of antibacterial activity” value [12] was “good level of antibacterial activity” and the “synergy with β-lactam antibiotics” value [13] was “able to synergyse the anti-bacterial activity of β-lactam antibiotics”.
In the case of CC1(C)S[C@@H]2[C@H](NC(=O)[C@H](N)c3ccccc3)C(=O)N2[C@H]1C(=O)O [Ampicillin, ampicillin], the MIC (Klebsiella aerogenes A [8]) is reported as 250 µg/mL and the MIC [9] is reported as 500 µg/mL.
With O=C(Cc1cccs1)N[C@@H]1C(=O)N2C(C(=O)[O-])=C(C[n+]3ccccc3)CS[C@H]12 [Cephaloridine, cephaloridine] the MIC (Klebsiella aerogenes A [8]; compound alone) was 5.0 µg/mL and the MIC ([9]; compound alone) was 1.25 µg/mL.
